Like-named read-outs stand apart in the source and are kept apart here.
Columns and labels:
human D4.4 = human D4.4 (Homo sapiens (Human), UniProt P21917); test: Radioligand competition binding vs. [3H]-(R)-(+)-7-OH-DPAT, hD4R; conditions: HEK293 cells stably expressing hD4R, read-out: D4R Ki ± SEM
human D3R = human D3R (Homo sapiens (Human), UniProt P35462); test: Radioligand competition binding vs. [3H]-(R)-(+)-7-OH-DPAT, hD3R; conditions: vs. [3H]-(R)-(+)-7-OH-DPAT; for D4R/D3R / D2R/D3R: ratio of Ki; for D2R/D3R: D3R selectivity over D2R
Chain of human D3R (P35462 whole entry): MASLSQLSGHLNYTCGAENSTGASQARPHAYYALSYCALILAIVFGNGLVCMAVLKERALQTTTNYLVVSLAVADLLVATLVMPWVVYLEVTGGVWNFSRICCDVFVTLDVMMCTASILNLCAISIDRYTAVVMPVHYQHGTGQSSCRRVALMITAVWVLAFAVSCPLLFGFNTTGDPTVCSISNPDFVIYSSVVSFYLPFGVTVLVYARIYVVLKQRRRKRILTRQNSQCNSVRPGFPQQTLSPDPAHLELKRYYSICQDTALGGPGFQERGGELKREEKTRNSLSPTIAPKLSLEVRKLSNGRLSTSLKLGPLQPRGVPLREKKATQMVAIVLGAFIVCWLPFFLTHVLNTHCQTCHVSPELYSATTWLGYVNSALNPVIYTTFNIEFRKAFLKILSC

human D2LR = human D2LR (Homo sapiens (Human), UniProt P14416); test: Radioligand competition binding vs. [3H]-(R)-(+)-7-OH-DPAT, hD2R; conditions: vs. [3H]-(R)-(+)-7-OH-DPAT
Chain of human D2LR (P14416 whole entry): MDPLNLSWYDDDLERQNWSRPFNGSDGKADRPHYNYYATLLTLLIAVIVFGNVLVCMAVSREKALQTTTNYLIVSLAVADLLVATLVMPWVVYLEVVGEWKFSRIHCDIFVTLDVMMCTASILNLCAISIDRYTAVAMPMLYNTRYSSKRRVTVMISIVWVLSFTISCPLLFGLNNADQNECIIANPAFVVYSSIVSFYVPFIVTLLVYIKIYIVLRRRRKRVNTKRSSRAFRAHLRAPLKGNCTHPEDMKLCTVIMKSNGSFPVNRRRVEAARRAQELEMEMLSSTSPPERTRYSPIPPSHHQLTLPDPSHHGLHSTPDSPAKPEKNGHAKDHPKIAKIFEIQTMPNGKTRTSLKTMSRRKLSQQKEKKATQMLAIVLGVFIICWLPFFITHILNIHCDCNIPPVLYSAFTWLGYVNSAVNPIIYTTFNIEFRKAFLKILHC

hD1R = hD1R (Homo sapiens (Human), UniProt P21728); test: Off-target competition binding vs. [3H]-SCH23390, hD1R; conditions: read-out: hD1R Ki ± SEM
Chain of hD1R (P21728 whole entry): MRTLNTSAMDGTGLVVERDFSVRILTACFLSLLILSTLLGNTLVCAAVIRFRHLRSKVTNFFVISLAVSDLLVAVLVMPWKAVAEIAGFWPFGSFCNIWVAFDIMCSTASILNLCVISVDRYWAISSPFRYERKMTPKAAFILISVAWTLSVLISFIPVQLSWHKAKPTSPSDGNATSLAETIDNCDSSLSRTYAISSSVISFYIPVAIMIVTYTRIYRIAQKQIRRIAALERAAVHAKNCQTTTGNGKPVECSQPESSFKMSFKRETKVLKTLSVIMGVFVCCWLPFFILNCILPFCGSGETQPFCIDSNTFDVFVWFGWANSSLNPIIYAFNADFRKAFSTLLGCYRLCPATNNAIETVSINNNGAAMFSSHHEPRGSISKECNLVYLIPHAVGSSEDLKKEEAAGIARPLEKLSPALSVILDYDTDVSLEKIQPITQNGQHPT

hμOR = hμOR (Homo sapiens (Human), UniProt P35372); test: Off-target competition binding vs. [3H]-DAMGO, hμOR; conditions: read-out: hμOR Ki ± SEM
Chain of hμOR (P35372 whole entry): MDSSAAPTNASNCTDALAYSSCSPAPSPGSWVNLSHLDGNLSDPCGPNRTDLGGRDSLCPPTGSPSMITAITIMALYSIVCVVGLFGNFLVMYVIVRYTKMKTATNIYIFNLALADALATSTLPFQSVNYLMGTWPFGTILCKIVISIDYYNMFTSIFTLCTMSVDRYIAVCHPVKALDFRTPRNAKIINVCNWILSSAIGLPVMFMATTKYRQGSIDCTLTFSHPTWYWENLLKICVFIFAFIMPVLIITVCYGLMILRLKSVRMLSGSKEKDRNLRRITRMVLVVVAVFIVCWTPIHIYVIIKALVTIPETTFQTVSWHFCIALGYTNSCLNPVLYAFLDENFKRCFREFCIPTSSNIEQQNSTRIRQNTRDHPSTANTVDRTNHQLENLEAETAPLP

hD2LR = hD2LR (Homo sapiens (Human), UniProt P14416); test: Competition binding vs. antagonist [3H]-N-methylspiperone, D2R; conditions: read-out: hD2LR Ki ± SEM
Chain of hD2LR (P14416 whole entry): as the sequence (P14416 whole entry) above

hD3R = hD3R (Homo sapiens (Human), UniProt P35462); test: Competition binding vs. antagonist [3H]-N-methylspiperone, D3R; conditions: read-out: hD3R Ki ± SEM; vs. antagonist [3H]-N-methylspiperone
Chain of hD3R (P35462 whole entry): as the sequence (P35462 whole entry) above

[1] = HEK293 cells stably expressing hD3R, read-out: D3R Ki ± SEM
[2] = HEK293 cells stably expressing hD2R, read-out: D2R Ki ± SEM
[3] = HEK293, read-out: hD3R Ki ± SEM
[4] = HEK293, read-out: hD2LR Ki ± SEM
[5] = vs. [3H]-DAMGO, HEK293 membranes, >100 = <50% inhibition at 100 μM

Chain of human D4.4 (P21917 whole entry): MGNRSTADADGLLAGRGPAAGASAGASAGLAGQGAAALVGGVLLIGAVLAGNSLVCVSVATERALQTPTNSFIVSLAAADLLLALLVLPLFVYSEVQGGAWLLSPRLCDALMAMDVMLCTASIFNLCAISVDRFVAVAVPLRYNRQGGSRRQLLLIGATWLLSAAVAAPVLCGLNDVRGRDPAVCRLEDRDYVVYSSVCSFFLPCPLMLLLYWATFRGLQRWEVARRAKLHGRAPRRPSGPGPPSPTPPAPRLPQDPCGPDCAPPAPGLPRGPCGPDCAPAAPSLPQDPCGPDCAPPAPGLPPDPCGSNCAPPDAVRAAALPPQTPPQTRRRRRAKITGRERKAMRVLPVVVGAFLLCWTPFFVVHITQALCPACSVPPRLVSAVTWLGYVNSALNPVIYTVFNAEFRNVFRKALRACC

CCCN1CCO[C@@H]2c3cc(O)ccc3OC[C@H]21 [(+)-PD128,907, (4aR,10bR)-4-propyl-3,4,4a,10b-tetrahydro-2H,5H-chromeno[4,3-b][1,4]oxazin-9-ol, reference compound]
Ki (human D4.4): 26.6 ± 3.97 nM
D4R/D3R (human D3R): 15.7
D2R/D3R (human D3R): 12.1
Ki (human D3R; [1]): 1.69 ± 0.0892 nM
Ki (human D2LR; [2]): 20.5 ± 2.87 nM

CCCN1CCO[C@H]2c3cc(O)ccc3OC[C@@H]21 [(−)-(4aS,10bS)-2, reference compound]
loss of D3R affinity relative to (+)-(4aR,10bR)-2 (human D3R): > 3000 fold
Ki (human D3R; [3]): 5620 nM
Ki (human D2LR; [4]): 7580 ± 2620 nM
Ki (hD1R): > 100000 nM
Ki (hμOR; [5]): 77900 ± 41400 nM

C[C@H]1CO[C@@H](c2ccc(N)nc2)CN1C/C=C1\CCC(CNC(=O)c2cc3ccccc3[nH]2)C1 (some centres unmarked) [FOB04-02]
Ki (hD2LR): 7920 ± 772 nM
Ki (hD3R): 104 ± 7.65 nM
Ki (human D3R; [1]): 7.41 ± 0.323 nM
Ki (human D2LR; [2]): 55.9 ± 4.78 nM

CCCN1CCO[C@@H]2c3cc(O)ccc3OC[C@H]21 [(+)-(4aR,10bR)-2, reference compound]
Ki (human D3R; [3]): 1.67 ± 0.257 nM
Ki (human D2LR; [4]): 28 ± 5.59 nM
Ki (hD1R): > 100000 nM
Ki (hμOR; [5]): 36600 ± 19800 nM

C[C@H]1COC(c2ccc(N)nc2)CN1CCCCOc1ccc2c(c1)NC(=O)CC2 (stereo partly drawn) [AB04-35, 7-(4-((5S)-2-(6-aminopyridin-3-yl)-5-methylmorpholino)butoxy)-3,4-dihydroquinolin-2(1H)-one]
Ki (human D4.4): 3220 nM
D4R/D3R (human D3R): 18.6
D2R/D3R (human D3R): 0.653
Ki (human D3R; [1]): 173 ± 48.2 nM
Ki (human D2LR; [2]): 113 ± 22.7 nM

CCCN(CCC)c1ccc(C2CN(CCC)[C@@H](C)CO2)cn1 (stereo partly drawn) [AB04-52, 5-((5S)-5-methyl-4-propylmorpholin-2-yl)-N,N-dipropylpyridin-2-amine]
Ki (human D4.4): > 100000 nM
D4R/D3R (human D3R): >4.74
D2R/D3R (human D3R): 0.391
Ki (human D3R; [1]): 21100 nM
Ki (human D2LR; [2]): 8240 nM

C[C@H]1CO[C@@H](c2ccc(N)nc2)CN1CC(=O)N1CCC(CNC(=O)c2cc3ccccc3[nH]2)C1 (stereo partly drawn) [AB07-80, N-((1-(2-((2S,5S)-2-(6-aminopyridin-3-yl)-5-methylmorpholino)acetyl)pyrrolidin-3-yl)methyl)-1H-indole-2-carboxamide]
Ki (hD2LR): 7930 ± 1190 nM
Ki (hD3R): 2410 ± 287 nM
Ki (human D3R; [1]): 2010 nM
Ki (human D2LR; [2]): 1840 nM

CCCN1CC(c2ccc(N)nc2)OC[C@@H]1C (some centres unmarked) [AB03-02, reference compound]
Ki (human D4.4): 292 ± 22.2 nM
D4R/D3R (human D3R): 1.58
D2R/D3R (human D3R): 9.41
Ki (human D3R; [1]): 185 ± 20.5 nM
Ki (human D2LR; [4]): 1740 ± 348 nM

C[C@H]1CO[C@@H](c2ccc(N)nc2)CN1CCn1cc(CNC(=O)c2cc3ccccc3[nH]2)nn1 [AB08-03, N-((1-(2-((2S,5S)-2-(6-aminopyridin-3-yl)-5-methylmorpholino)ethyl)-1H-1,2,3-triazol-4-yl)methyl)-1H-indole-2-carboxamide]
Ki (hD2LR): 32300 ± 12700 nM
Ki (hD3R): 2780 ± 1020 nM

O=C(NCCCCN1CCOC2c3cc(O)ccc3OC[C@@H]21)c1cc2ccccc2[nH]1 (stereo in doubt) [rel-cis-12]
Ki (human D3R; [3]): 13800 nM
Ki (human D2LR; [4]): 9420 ± 3440 nM
Ki (hD1R): > 100000 nM
Ki (hμOR): 12300 ± 2880 nM

C[C@H]1CO[C@@H](c2ccc(N)nc2)CN1CC1CC1CNC(=O)c1cc2ccccc2[nH]1 (stereo partly drawn) [cis-FOB01-59B, cis-N-((2-(((2S,5S)-2-(6-aminopyridin-3-yl)-5-methylmorpholino)methyl)cyclopropyl)methyl)-1H-indole-2-carboxamide]
D2R/D3R (human D3R): 0.435
Ki (human D3R; [1]): 276 ± 30 nM
Ki (human D2LR; [2]): 120 ± 16.6 nM

C[C@H]1CO[C@H](c2ccc(N)nc2)CN1CC1CC1CNC(=O)c1cc2ccccc2[nH]1 (stereo partly drawn) [cis-FOB01-60A, cis-N-((2-(((2R,5S)-2-(6-aminopyridin-3-yl)-5-methylmorpholino)methyl)cyclopropyl)methyl)-1H-indole-2-carboxamide]
D2R/D3R (human D3R): 0.431
Ki (human D3R; [1]): 26200 nM
Ki (human D2LR; [2]): 11300 nM

C[C@H]1CO[C@@H](c2ccc(N)nc2)CN1CC(O)CCNC(=O)c1cc2ccccc2[nH]1 (some centres unmarked) [FOB02-67]
Ki (human D3R; [1]): 423 ± 164 nM
Ki (human D2LR; [2]): 1010 ± 162 nM
Ki (hμOR; [5]): 739 ± 70.1 nM

C[C@H]1CO[C@@H](c2ccc(N)nc2)CN1CC1CC1CNC(=O)c1cc2ccccc2[nH]1 (stereo partly drawn) [trans-AB05-27A, trans-N-((2-(((2S,5S)-2-(6-aminopyridin-3-yl)-5-methylmorpholino)methyl)cyclopropyl)methyl)-1H-indole-2-carboxamide]
D2R/D3R (human D3R): 0.182
Ki (human D3R; [1]): 1190 nM
Ki (human D2LR; HEK293 cells stably expressing hD2R, listed as AB05-27A, read-out: D2R Ki ± SEM): 216 nM
Ki (human D2LR; [2]): 216 ± 32.6 nM

O=C(NCCCCNC1COc2ccc(O)cc2C1=O)c1cc2ccccc2[nH]1 (single isomer, unassigned) [SLC02-16B, N-(4-((6-hydroxy-4-oxochroman-3-yl)amino)butyl)-1H-indole-2-carboxamide]
D2R/D3R (human D3R): 0.808
Ki (human D3R; [1]): 1770 nM
Ki (human D2LR; [2]): 1430 nM

From patent US12479838B2, “D3 receptor agonist compounds; methods of preparation; intermediates thereof; and methods of use thereof” (THE UNITED STATES OF AMERICA, AS REPRESENTED BY THE …, priority 2019, dated 2025)
